# Patent US12448388B2, “PRMT5 inhibitors and uses thereof” (Gilead Sciences, Inc., priority 2023, dated 2025)
# System: HCT116 MTAP-deleted cell lines
# Test: Cell viability assay (CellTiter-Glo, 7 days), HCT116 MTAP-deleted
# Type: cell-based
# Conditions: Homo sapiens, HCT-116; cell viability, HCT116 MTAP-deleted; class symbols; read-out: CC50
# In short: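 Luminescent ATP readout (CellTiter-Glo) after 7 days of continuous compound exposure gives the CC50 value. Cells were plated onto pre-dispensed DMSO dilution series of the PRMT5 inhibitors and kept at 37 °C in 5% CO2.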
row,Structure (SMILES),CC50 [nM]
1,"C[C@H]1CN(C(=O)c2cc3c(cc2F)nc(N)c2cncn23)[C@H]2c3ccc(Br)cc3C[C@H]2O1 [Ff-93, (4-amino-7-fluoroimidazo[1,5-a]quinoxalin-8-yl)((2S,4aS,9aR)-7-bromo-2-methyl-2,3,9,9a-tetrahydroindeno[2,1-b][1,4]oxazin-4(4aH)-yl)methanone]",< 100
2,"CN(C(=O)c1cc2c(cc1F)nc(N)c1cncn12)[C@@H]1COc2cc(Br)ccc21 [Ff-94, (S)-4-amino-N-(6-bromo-2,3-dihydrobenzofuran-3-yl)-7-fluoro-N-methylimidazo[1,5-a]quinoxaline-8-carboxamide]",< 100
3,"CN(C(=O)c1cc2c(cc1F)nc(N)c1cncn12)[C@@H]1COc2cc(-c3cnn(C(F)(F)F)c3)ccc21 [Ff-95, (S)-4-amino-7-fluoro-N-methyl-N-(6-(1-(trifluoromethyl)-1H-pyrazol-4-yl)-2,3-dihydrobenzofuran-3-yl)imidazo[1,5-a]quinoxaline-8-carboxamide]",< 100
4,"C[C@H]1CN(C(=O)c2cc3c(cc2F)nc(N)c2cncn23)[C@H]2c3ccc(-c4cnn(C(F)F)c4)cc3C[C@H]2O1 [Ff-96, (4-amino-7-fluoroimidazo[1,5-a]quinoxalin-8-yl)((2S,4aS,9aR)-7-(1-(difluoromethyl)-1H-pyrazol-4-yl)-2-methyl-2,3,9,9a-tetrahydroindeno[2,1-b][1,4]oxazin-4(4aH)-yl)methanone]",< 100
5,"C[C@H]1CN(C(=O)c2cc3c(cc2F)nc(N)c2cncn23)[C@H]2c3ccc(-c4cnn(C(F)(F)F)c4)cc3C[C@H]2O1 [Ff-97, (4-amino-7-fluoroimidazo[1,5-a]quinoxalin-8-yl)((2S,4aS,9aR)-2-methyl-7-(1-(trifluoromethyl)-1H-pyrazol-4-yl)-2,3,9,9a-tetrahydroindeno[2,1-b][1,4]oxazin-4(4aH)-yl)methanone]",100 to 1000
6,"C[C@@H]1CN(C(=O)c2cc3c(cn2)nc(N)c2cncn23)[C@H]2c3ccc(C(F)(F)F)cc3C[C@H]2O1 [Ff-98, (4-aminoimidazo[1,5-a]pyrido[3,4-e]pyrazin-8-yl)((2R,4aS,9aR)-2-methyl-7-(trifluoromethyl)-2,3,9,9a-tetrahydroindeno[2,1-b][1,4]oxazin-4(4aH)-yl)methanone]",< 100
7,"Nc1nc2ccc(C(=O)N3CCOC[C@@H]3c3ccc(C(F)(F)F)cc3)cc2n2cnc(F)c12 [Ff-103, (S)-(4-amino-3-fluoroimidazo[1,5-a]quinoxalin-8-yl)(3-(4-(trifluoromethyl)phenyl)morpholino)methanone]",100 to 1000
8,"Nc1nc2cc(F)c(C(=O)N3CCC[C@@H]4Oc5cc(C(F)(F)F)c(F)cc5[C@@H]43)cc2n2cncc12 [Ff-105, (4-amino-7-fluoroimidazo[1,5-a]quinoxalin-8-yl)((4aS,9bS)-8-fluoro-7-(trifluoromethyl)-3,4,4a,9b-tetrahydrobenzofuro[3,2-b]pyridin-1(2H)-yl)methanone]",< 100
9,"Cc1ncc2c(N)nc3cnc(C(=O)N4CCC[C@@H]5Oc6c(ccc(C(F)(F)F)c6F)[C@@H]54)cc3n12 [Ff-107, (4-amino-1-methylimidazo[1,5-a]pyrido[3,4-e]pyrazin-8-yl)((4aS,9bS)-6-fluoro-7-(trifluoromethyl)-3,4,4a,9b-tetrahydrobenzofuro[3,2-b]pyridin-1(2H)-yl)methanone]",< 100
10,"Cc1ncc2c(N)nc3cnc(C(=O)N4CCC[C@@H]5Oc6cc(C(F)(F)F)c(F)cc6[C@@H]54)cc3n12 [Ff-108, (4-amino-1-methylimidazo[1,5-a]pyrido[3,4-e]pyrazin-8-yl)((4aS,9bS)-8-fluoro-7-(trifluoromethyl)-3,4,4a,9b-tetrahydrobenzofuro[3,2-b]pyridin-1(2H)-yl)methanone]",< 100
11,"CC1Oc2cc(C(F)(F)F)ccc2C1N(C)C(=O)c1cc2c(cc1F)nc(N)c1cncn12 (centres unmarked) [Ff-114, 4-amino-7-fluoro-N-methyl-N-(2-methyl-6-(trifluoromethyl)-2,3-dihydrobenzofuran-3-yl)imidazo[1,5-a]quinoxaline-8-carboxamide]",< 100
12,"Cc1ncn2c1c(N)nc1cnc(C(=O)N3CCC[C@@H]4Oc5cc(C(F)(F)F)c(F)cc5[C@@H]43)cc12 [Ff-116, (4-amino-3-methylimidazo[1,5-a]pyrido[3,4-e]pyrazin-8-yl)((4aS,9bS)-8-fluoro-7-(trifluoromethyl)-3,4,4a,9b-tetrahydrobenzofuro[3,2-b]pyridin-1(2H)-yl)methanone]",< 100
13,"Nc1nc2ccc(C(=O)N3CCC[C@@H]4Oc5c(ccc(C(F)(F)F)c5F)[C@@H]43)cc2n2cncc12 [Ff-118, (4-aminoimidazo[1,5-a]quinoxalin-8-yl)((4aS,9bS)-6-fluoro-7-(trifluoromethyl)-3,4,4a,9b-tetrahydrobenzofuro[3,2-b]pyridin-1(2H)-yl)methanone]",< 100
14,"Cc1ncn2c1c(N)nc1cnc(C(=O)N3CCC[C@@H]4Oc5c(ccc(C(F)(F)F)c5F)[C@@H]43)cc12 [Ff-119, (4-amino-3-methylimidazo[1,5-a]pyrido[3,4-e]pyrazin-8-yl)((4aS,9bS)-6-fluoro-7-(trifluoromethyl)-3,4,4a,9b-tetrahydrobenzofuro[3,2-b]pyridin-1(2H)-yl)methanone]",< 100
15,"Nc1nc2cc(F)c(C(=O)N3C[C@@H](F)C[C@@H]4Oc5cc(C(F)(F)F)ccc5[C@@H]43)cc2n2cncc12 [Ff-120, (4-amino-7-fluoroimidazo[1,5-a]quinoxalin-8-yl)((3S,4aS,9bS)-3-fluoro-7-(trifluoromethyl)-3,4,4a,9b-tetrahydrobenzofuro[3,2-b]pyridin-1(2H)-yl)methanone]",< 100
16,"Cc1ncc2c(N)nc3ccc(C(=O)N4CCC[C@@H]5Oc6c(ccc(C(F)(F)F)c6F)[C@@H]54)cc3n12 [Ff-122, (4-amino-1-methylimidazo[1,5-a]quinoxalin-8-yl)((4aS,9bS)-6-fluoro-7-(trifluoromethyl)-3,4,4a,9b-tetrahydrobenzofuro[3,2-b]pyridin-1(2H)-yl)methanone]",< 100
17,"CN(Cc1ccc2c(c1)OC(F)(F)O2)C(=O)c1ccc2nc(N)c3cncn3c2c1 [Ff-123, 4-amino-N-((2,2-difluorobenzo[d][1,3]dioxol-5-yl)methyl)-N-methylimidazo[1,5-a]quinoxaline-8-carboxamide]",100 to 1000
18,"CN(Cc1ccc2c(c1)OC(F)(F)O2)C(=O)c1cc2c(cc1F)nc(N)c1cncn12 [Ff-124, 4-amino-N-((2,2-difluorobenzo[d][1,3]dioxol-5-yl)methyl)-7-fluoro-N-methylimidazo[1,5-a]quinoxaline-8-carboxamide]",100 to 1000
19,"COc1cc(C(F)(F)F)ccc1CN(C)C(=O)c1ccc2nc(N)c3cncn3c2c1 [Ff-125, 4-amino-N-(2-methoxy-4-(trifluoromethyl)benzyl)-N-methylimidazo[1,5-a]quinoxaline-8-carboxamide]",100 to 1000
20,"COCc1cc(C(F)(F)F)ccc1CN(C)C(=O)c1ccc2nc(N)c3cncn3c2c1 [Ff-126, 4-amino-N-(2-(methoxymethyl)-4-(trifluoromethyl)benzyl)-N-methylimidazo[1,5-a]quinoxaline-8-carboxamide]",100 to 1000
21,Cc1nc2cc([C@H]3CC[C@H](C)CN3C(=O)c3ccc4nc(N)c5cnc(C)n5c4c3)ccc2s1 [Ff-127],100 to 1000
22,"Nc1nc2cc(F)c(C(=O)N3CCOCC3c3ccc(C(F)(F)F)cn3)cc2n2cncc12 (centres unmarked) [Ff-128, (4-amino-7-fluoroimidazo[1,5-a]quinoxalin-8-yl)(3-(5-(trifluoromethyl)pyridin-2-yl)morpholino)methanone]",< 100
23,"C[C@@H]1CN(C(=O)c2cc3c(cc2F)nc(N)c2cncn23)[C@@H](c2ccc(C(F)(F)F)cn2)CO1 [Ff-129, (4-amino-7-fluoroimidazo[1,5-a]quinoxalin-8-yl)((2R,5S)-2-methyl-5-(5-(trifluoromethyl)pyridin-2-yl)morpholino)methanone]",< 100
24,"C[C@H]1CN(C(=O)c2cc3c(cc2F)nc(N)c2cncn23)[C@@H](c2ccc(C(F)(F)F)cn2)CO1 [Ff-130, (4-amino-7-fluoroimidazo[1,5-a]quinoxalin-8-yl)((2S,5S)-2-methyl-5-(5-(trifluoromethyl)pyridin-2-yl)morpholino)methanone]",< 100
25,"C[C@@H]1COC[C@H](c2ccc(C(F)(F)F)cn2)N1C(=O)c1cc2c(cc1F)nc(N)c1cncn12 [Ff-131, (4-amino-7-fluoroimidazo[1,5-a]quinoxalin-8-yl)((3R,5S)-3-methyl-5-(5-(trifluoromethyl)pyridin-2-yl)morpholino)methanone]",< 100
26,"C[C@@H]1OCCN(C(=O)c2cc3c(cc2F)nc(N)c2cncn23)[C@H]1c1ccc(C(F)(F)F)cn1 [Ff-132, (4-amino-7-fluoroimidazo[1,5-a]quinoxalin-8-yl)((2S,3S)-2-methyl-3-(5-(trifluoromethyl)pyridin-2-yl)morpholino)methanone]",< 100
27,"Nc1nc2cc(F)c(C(=O)N3CCCCC3c3ccc(C(F)(F)F)cn3)cc2n2cncc12 (centres unmarked) [Ff-133, (4-amino-7-fluoroimidazo[1,5-a]quinoxalin-8-yl)(2-(5-(trifluoromethyl)pyridin-2-yl)piperidin-1-yl)methanone]",< 100
28,"CC(=O)N1CCN(C(=O)c2cc3c(cc2F)nc(N)c2cncn23)C(c2ccc(C(F)(F)F)cn2)C1 (centres unmarked) [Ff-134, 1-(4-(4-amino-7-fluoroimidazo[1,5-a]quinoxaline-8-carbonyl)-3-(5-(trifluoromethyl)pyridin-2-yl)piperazin-1-yl)ethan-1-one]",100 to 1000
29,"CS(=O)(=O)N1CCN(C(=O)c2cc3c(cc2F)nc(N)c2cncn23)C(c2ccc(C(F)(F)F)cn2)C1 (centres unmarked) [Ff-135, (4-amino-7-fluoroimidazo[1,5-a]quinoxalin-8-yl)(4-(methylsulfonyl)-2-(5-(trifluoromethyl)pyridin-2-yl)piperazin-1-yl)methanone]",100 to 1000
